Laboratory results from the NIST ThermoML archive (doi:10.1021/je301164d).

Settings: Fluid (supercritical or subcritical phases)

FC(C(F)(F)F)C(F)(F)F [1,1,1,2,3,3,3-heptafluoropropane]
Settings | speed of sound [m/s]
280 K, 603.72 kPa | 494.1
280 K, 1104.4 kPa | 498.92
280 K, 1604.7 kPa | 503.64
280 K, 2105 kPa | 508.26
280 K, 3105.8 kPa | 517.26
280 K, 4106.2 kPa | 525.95
280 K, 5107.1 kPa | 534.35
280 K, 6107.9 kPa | 542.49
280 K, 7109.3 kPa | 550.4
280 K, 8110 kPa | 558.07
280 K, 9110.7 kPa | 565.55
280 K, 10111 kPa | 572.83
280 K, 12613 kPa | 590.29
280 K, 15115 kPa | 606.8
280 K, 17616 kPa | 622.5
280 K, 20118 kPa | 637.48
280 K, 35129 kPa | 716.11
280 K, 40132 kPa | 739.1
280 K, 45136 kPa | 760.88
280 K, 50139 kPa | 781.61
280.01 K, 25122 kPa | 665.6
280.01 K, 30125 kPa | 691.69
299.99 K, 1103 kPa | 417.61
299.99 K, 1603.4 kPa | 423.61
299.99 K, 2103.8 kPa | 429.45
300 K, 3106.4 kPa | 440.66
300 K, 4107.2 kPa | 451.3
300 K, 5107.9 kPa | 461.45
300 K, 6108.6 kPa | 471.17
300 K, 7109.4 kPa | 480.51
300 K, 8110.1 kPa | 489.5
300 K, 9110.1 kPa | 498.18
300 K, 10111 kPa | 506.58
300 K, 12612 kPa | 526.5
300 K, 15114 kPa | 545.09
300 K, 17616 kPa | 562.57
300 K, 20118 kPa | 579.11
300 K, 25122 kPa | 609.85
300 K, 30126 kPa | 638.04
300 K, 35129 kPa | 664.19
300 K, 40132 kPa | 688.66
300 K, 45136 kPa | 711.71
300 K, 50139 kPa | 733.55
320 K, 1104.2 kPa | 332.96
320 K, 2104.9 kPa | 349.11
320 K, 3105.5 kPa | 363.82
320 K, 4105.6 kPa | 377.39
320 K, 5106.4 kPa | 390.04
320 K, 6107.1 kPa | 401.94
320 K, 7107.7 kPa | 413.18
320 K, 8108.4 kPa | 423.87
320 K, 9109 kPa | 434.06
320 K, 10110 kPa | 443.83
320 K, 12612 kPa | 466.66
320 K, 15113 kPa | 487.61
320 K, 17615 kPa | 507.06
320 K, 20117 kPa | 525.27
320 K, 25120 kPa | 558.72
320 K, 30124 kPa | 589.03
320 K, 35128 kPa | 616.9
320 K, 40131 kPa | 642.8
320 K, 45135 kPa | 667.06
320.01 K, 50138 kPa | 689.95
340 K, 1603.1 kPa | 249.98
340 K, 2103.4 kPa | 262.38
340 K, 3104.1 kPa | 283.96
340 K, 4104.8 kPa | 302.59
340 K, 5105.4 kPa | 319.17
340 K, 6106 kPa | 334.23
340 K, 7106.7 kPa | 348.1
340 K, 8108.1 kPa | 361.03
340 K, 9108.9 kPa | 373.15
340 K, 10110 kPa | 384.6
340 K, 12612 kPa | 410.84
340 K, 15113 kPa | 434.43
340 K, 17615 kPa | 456
340 K, 20117 kPa | 475.96
340 K, 25120 kPa | 512.15
340 K, 30124 kPa | 544.54
340 K, 35127 kPa | 574.06
340 K, 40130 kPa | 601.3
340 K, 45134 kPa | 626.7
340 K, 50138 kPa | 650.55
360 K, 3604.3 kPa | 209.76
360 K, 4104.8 kPa | 223.69
360 K, 5105.6 kPa | 247.37
360 K, 6106.5 kPa | 267.43
360 K, 7107.4 kPa | 285.07
360.01 K, 8109.2 kPa | 300.98
360.01 K, 9110 kPa | 315.53
360.01 K, 10111 kPa | 329.01
360.01 K, 12612 kPa | 359.17
360.01 K, 15114 kPa | 385.62
360.01 K, 17616 kPa | 409.39
360.01 K, 20118 kPa | 431.12
360.01 K, 25122 kPa | 470
360.01 K, 30125 kPa | 504.36
360.01 K, 35129 kPa | 535.41
360.01 K, 40132 kPa | 563.88
360.01 K, 45135 kPa | 590.29
360.01 K, 50139 kPa | 615
380 K, 7107.3 kPa | 224.9
380 K, 8108.1 kPa | 244.61
380 K, 9108.9 kPa | 262.08
380 K, 10110 kPa | 277.88
380 K, 11110 kPa | 292.38
380 K, 12111 kPa | 305.84
380 K, 13112 kPa | 318.45
380 K, 14112 kPa | 330.32
380 K, 15113 kPa | 341.58
380 K, 17615 kPa | 367.5
380 K, 20117 kPa | 390.9
380 K, 22618 kPa | 412.36
380 K, 25120 kPa | 432.25
380 K, 30123 kPa | 468.39
380 K, 35127 kPa | 500.79
380 K, 40130 kPa | 530.34
380 K, 45134 kPa | 557.64
380 K, 50137 kPa | 583.09
400 K, 10108 kPa | 232.81
400 K, 11109 kPa | 249.04
400 K, 12109 kPa | 263.93
400 K, 13110 kPa | 277.75
400 K, 14111 kPa | 290.67
400 K, 15112 kPa | 302.83
400 K, 16112 kPa | 314.36
400 K, 17113 kPa | 325.31
400 K, 18114 kPa | 335.78
400 K, 19115 kPa | 345.8
400 K, 20116 kPa | 355.43
400 K, 22618 kPa | 378.04
400 K, 25119 kPa | 398.88
400 K, 27621 kPa | 418.29
400 K, 30123 kPa | 436.5
400 K, 35126 kPa | 470.02
400 K, 40130 kPa | 500.46
400 K, 45133 kPa | 528.48
400 K, 50137 kPa | 554.55
420 K, 12108 kPa | 229.23
420 K, 13109 kPa | 243.75
420 K, 14110 kPa | 257.31
420 K, 15111 kPa | 270.06
420 K, 16111 kPa | 282.11
420 K, 17112 kPa | 293.55
420 K, 18113 kPa | 304.45
420 K, 19114 kPa | 314.88
420 K, 20115 kPa | 324.88
420 K, 22617 kPa | 348.3
420 K, 25118 kPa | 369.82
420 K, 27620 kPa | 389.82
420 K, 30122 kPa | 408.54
420 K, 35125 kPa | 442.89
420 K, 40129 kPa | 474.01
420 K, 45133 kPa | 502.59
420 K, 50136 kPa | 529.12
420 K, 55140 kPa | 553.96
420 K, 60143 kPa | 577.36
420 K, 70150 kPa | 620.64
420 K, 80158 kPa | 660.12
420 K, 90165 kPa | 696.59
